Structures can show the parent of a compound that is named as a salt. Where two headings read alike, the source gives them in different places.
Key:
[1] = system: MSSA; assay: MIC susceptibility testing, MSSA; assay type: cell-based, Staphylococcus aureus
Protocol: (§1) Susceptibility testing with the exception of Streptococcus pneumoniae was performed by two-fold serial dilutions in Mueller Hinton Broth supplemented with 50 μg/mL Ca^2+. Susceptibility testing of S. pneumoniae was performed by two-fold serial dilutions in Brain-Heart-Infusion Broth supplemented with 50 μg/mL Ca^2+.
(§2) Modal values from up to 6 determinations

[2] = system: Methicillin-sensitive Staph. epidermidis; assay: MIC susceptibility testing, methicillin-sensitive Staph. epidermidis; assay type: cell-based, S. epidermidis
Protocol: as §1, §2

[3] = system: Vancomycin sensitive enterococci, E. faecium; assay: MIC susceptibility testing, vancomycin sensitive enterococci (E. faecium); assay type: cell-based
Protocol: as §1, §2

[4] = system: Vancomycin sensitive enterococci, E. faecalis; assay: MIC susceptibility testing, vancomycin sensitive enterococci (E. faecalis); assay type: cell-based
Protocol: as §1, §2

[5] = system: Vancomycin resistant enterococci, E. faecalis; assay: MIC susceptibility testing, vancomycin resistant enterococci (E. faecalis); assay type: cell-based
Protocol: as §1, §2

[6] = Aqueous solubility; assay type: physicochemical
Source text: Solubility as employed herein is used generically to refer to a distribution of a compound of formula (I) in a solvent (for example water, saline or an aqueous isotonic solution such as glucose) such that the formulation/composition resulting therefrom is substantially free of visible aggregates and for example is substantially transparent when viewed by the naked eye. Such a formulation would therefore include a whole range of formats which are suitable for infusion and/or injection such as solutions, suspensions, colloids and the like. […]

[7] = system: Staphylococcus aureus methicillin resistant ATCC 33591; assay: Mouse bacteraemia model, second experiment, IV dosing; assay type: in vivo; settings: for number of deaths: after 7 days, groups of 6 mice
Protocol: In a second experiment Groups of 6 male CD-1 (Crl.) derived mice weighing 24±2 g were used. Mice were inoculated intraperitoneally (IP) with an LD90-100 of Staphylococcus aureus methicillin resistant ATCC 33591 (1.35×10^8 CFU/mouse) in 0.5 mL of BHI broth containing 5% mucin. Example 1 was dissolved in 5% dextrose/1.5 mM potassium phosphate, pH 5.0 and doses of 1, 3, 5 and 10 mg/Kg were administered intravenously (IV) to test animals at 1 and 13 hour(s) after bacteria challenge. The dosing volume was 5 mL/Kg. Mortality was recorded once daily for 7 days.

[8] = system: Methicillin Resistant Staphylococcus aureus (MRSA, ATCC 33591); assay: Neutropaenic mouse thigh infection model, further experiment; assay type: in vivo; settings: IV 2 and 14 h after infection, 2.5-50 mg/Kg, FIG. 3
Protocol: In a further experiment, groups of 6 male ICR mice weighing 24±2 g were used. Test animals were immunosuppressed by 2 intraperitoneal injections of cyclophosphamide, the first at 150 mg/Kg 4 days before infection (day-4) and the second at 100 mg/Kg 1 day before infection (day-1). On day 0, individual animals were inoculated intramuscularly (IM) into the right thigh of test animals with 1.5×10^5 CFU/mouse of Methicillin Resistant Staphylococcus aureus (MRSA, ATCC 33591) suspended in 100 μL of sterile PBS, pH 7.4. Vehicle and test substances were administered intravenously (IV) at a dose volume of 8 mL/Kg, 2 and 14 hours after thigh infection. Example 1 was dissolved in 5% dextrose/1 mM potassium phosphate, pH 5.0 and administered at doses of 2.5, 5, 10, 15, 25 and 50 mg/Kg. At 26 hours after inoculation, muscle of the right thigh of each test mouse was harvested. From an additional group with no treatment, muscle of the right thigh was harvested at 2 hours after inoculation for the basal CFU determination. The removed muscle tissues were then homogenized in 3-4 mL of PBS, pH 7.4 with a ceramic mortar. Homogenates of 0.1 mL were used for serial 10-fold dilutions and plated on Mueller Hinton broth in 1.5% Bacto agar for CFU determination.

Structure (SMILES): CC[C@H](C)[C@@H]1NC(=O)[C@@H]2NC(=O)[C@H](CC(C)C)NC(=O)[C@H](NC(=O)[C@@H]3CSC[C@@H](N)C(=O)N[C@@H](CO)C(=O)NCC(=O)N[C@@H](Cc4c[nH]c5ccccc45)C(=O)N[C@@H](C(C)C)C(=O)N3)[C@H](C)SC[C@H](NC(=O)[C@H](CCC(=O)O)NC1=O)C(=O)NCC(=O)N[C@H]1C(=O)N[C@@H](CC(C)C)C(=O)N[C@@H](C(C)C)C(=O)N[C@@H](CS[C@H]2C)C(=O)N[C@@H](C)C(=O)N[C@H](C(=O)NCc2cc(Cl)cc(Cl)c2)CS[C@H]1C [Example 1, Deoxyactagardine B (3,5-dichlorobenzylamine) monocarboxamide N-methyl glucamine salt]
- MIC ([1]; S. aureus 8325-4): 4 µg/mL
- MIC ([1]; S. aureus G12): 4 µg/mL
- MIC ([1]; S. aureus G15): 4 µg/mL
- MIC ([1]; S. aureus G20): 4 µg/mL
- MIC ([1]; S. aureus G22): 4 µg/mL
- MIC ([1]; S. aureus G23): 4 µg/mL
- MIC ([1]; S. aureus G26): 4 µg/mL
- MIC ([1]; S. aureus G28): 4 µg/mL
- MIC ([1]; S. aureus G29): 4 µg/mL
- MIC ([1]; S. aureus G30): 4 µg/mL
- MIC ([1]; S. aureus G31): 4 µg/mL
- MIC ([1]; S. aureus G32): 4 µg/mL
- MIC ([1]; S. aureus G33): 4 µg/mL
- MIC ([1]; S. aureus G35): 4 µg/mL
- MIC ([1]; S. aureus SH1000): 4 to 8 µg/mL
- MIC ([2]; S. epidermidis 9AF): 16 µg/mL
- MIC ([2]; S. epidermidis C12): 16 µg/mL
- MIC ([2]; S. epidermidis C16): 16 µg/mL
- MIC ([2]; S. epidermidis GRL05001): 8 µg/mL
- MIC ([2]; S. epidermidis GRL05002): 8 µg/mL
- MIC ([2]; S. epidermidis GRL05003): 8 µg/mL
- MIC ([2]; S. epidermidis GRL05004): 4 to 8 µg/mL
- MIC ([2]; S. epidermidis GRL05005): 4 to 8 µg/mL
- MIC ([2]; S. epidermidis GRL05006): 4 to 8 µg/mL
- MIC ([2]; S. epidermidis GRL05007): <16 µg/mL
- MIC ([2]; S. epidermidis GRL05008): 4 to 8 µg/mL
- MIC ([2]; S. epidermidis GRL05009): 16 µg/mL
- MIC ([2]; S. epidermidis GRL05010): <16 µg/mL
- MIC ([2]; S. epidermidis MF87): 4 µg/mL
- MIC ([3]; E. faecium 19579): 4 µg/mL
- MIC ([3]; E. faecium 7754422): <8 µg/mL
- MIC ([3]; E. faecium 7865229): 16 µg/mL
- MIC ([4]; E. faecalis 7757400): <4 µg/mL
- MIC ([4]; E. faecalis 7791220): <16 µg/mL
- MIC ([4]; E. faecalis GRL05022): <8 µg/mL
- MIC ([4]; E. faecalis GRL05023): 4 µg/mL
- MIC ([4]; E. faecalis GRL05024): <8 µg/mL
- MIC ([4]; E. faecalis GRL05026): 8 µg/mL
- MIC ([4]; E. faecalis GRL05027): 4 to 8 µg/mL
- MIC ([4]; E. faecalis GRL05029): 4 µg/mL
- MIC ([4]; E. faecalis GRL05030): <8 µg/mL
- MIC ([5]; E. faecalis 9758512): 8 µg/mL
- MIC ([5]; E. faecalis GRL05031): 2 to 4 µg/mL
- MIC ([5]; E. faecalis GRL05032): 8 µg/mL
- MIC ([5]; E. faecalis GRL05033): 8 µg/mL
- MIC ([5]; E. faecalis GRL05034): 4 µg/mL
- MIC ([5]; E. faecalis GRL05035): 8 µg/mL
- pH of saturated solution ([6]; aqueous saturated solution, listed as N-methyl-D-glucamine salt): 8.43
- Solubility ([6]; aqueous, * = calculations made from two determinations, listed as N-methyl-D-glucamine salt): 6.87* mg/mL
- Solubility ([6]; water, salts of compound 1, read-out: solubility): > 10000 µg/mL
- number of deaths ([7]; 1 mg/kg IV at 1 and 13 h after challenge): 5
- number of deaths ([7]; 3 mg/kg IV at 1 and 13 h after challenge): 4
- number of deaths ([7]; 5 mg/kg IV at 1 and 13 h after challenge): 1
- number of deaths ([7]; 10 mg/kg IV at 1 and 13 h after challenge): 1
- survival of mice after 7 days ([7]; 1, 3, 5 and 10 mg/kg): dose-dependent incease in survival
- bacterial counts in the thigh tissue [8]: dose dependent reduction

From patent US20120309676A1, “Lantibiotic Salts” (priority 2010, published 2012)
